Source: patent US11919965B2, “Methods of treating multiple myeloma with bispecific anti-BCMA x anti-CD3 antibodies” (Regeneron Pharmaceuticals, Inc., priority 2019, dated 2024)

Assays:
[1] = tested on: surface BCMA on MM1S cells; experiment: FACS surface BCMA after overnight incubation with anti-BCMA antibodies or DAPT; assay type: cell-based, human; conditions: stained with the anti-BCMA antibody
Procedure: (§1) Flow cytometric analysis was utilized to determine the impact of overnight incubation of multiple myeloma cell lines with anti-BCMA antibodies on the level of surface BCMA. […] After 18 hours, wells were washed with cold FACS wash (PBS+1% filtered FBS) and resuspended in 667 nM of the same anti-BCMA antibody in cold stain buffer (Miltenyi 130-091-221) for 30 minutes on ice. After incubation, the cells were washed twice with cold FACS wash (PBS+1% filtered FBS) and bound antibody was detected by incubating with the appropriate anti-human secondary antibody (anti-hlgG or anti-HIS) on ice for an additional 30-45 minutes. After incubation, cells were washed, re-suspended in 200 μL cold PBS containing 1% filtered FBS and analyzed by flow cytometry on a BD FACS Canto II. Fold increase in staining was calculated by dividing the MFI of stained cells previously incubated overnight in BCMA abs or DAPT by the MFI of stained cells that were incubated overnight in media only.

[2] = tested on: surface BCMA on Molp8 cells; experiment: as above; assay type: cell-based, human
Procedure: as §1

[3] = tested on: surface BCMA on NCI-H929 cells; experiment: as above; assay type: cell-based, human
Procedure: as §1

[4] = tested on: surface BCMA on U266 cells; experiment: as above; assay type: cell-based, human
Procedure: as §1

MC38/BCMA tumors [5] = experiment: Syngenic MC38/BCMA tumor model in CD3-humanized mice, combination with anti-PD-1 (Example 20); assay type: in vivo, mouse; conditions: for Average Tumor Size (mm3) ± SEM on Day 3 / Average Tumor Size (mm3) ± SEM on Day 7 / Average Tumor Size (mm3) ± SEM on Day 11 / Average Tumor Size (mm3) ± SEM on Day 14 / Average Tumor Size (mm3) ± SEM on Day 18 / Average Tumor Size (mm3) ± SEM on Day 21 / Average Tumor Size (mm3) ± SEM on Day 24 / Average Tumor Size (mm3) ± SEM on Day 28: doses on days 3, 7, 11
Procedure: (§2) Implantation and measurement of syngenic tumors: C57BL/6 mice that express human CD3deg in place of murine CD3deg (CD3-humanized mice) were subcutaneously implanted with 1×10^6 MC38 colon carcinoma cells that have been engineered to express full-length human BCMA (MC38/BCMA).
(§3) The mice were administered these Abs twice more on days 7 and 11 for a total of three doses, and tumor growth was assessed throughout the experiment.
(§4) Calculation of syngenic tumor growth and inhibition: In order to determine tumor volume by external caliper, the greatest longitudinal diameter (length in mm) and the greatest transverse diameter (width in mm) were determined. Tumor volumes based on caliper measurements were calculated by the formula: Volume (mm^3)=(length× width^2)/2.

MC38/BCMA tumors [6] = experiment: Syngenic MC38/BCMA tumor model in CD3-humanized mice, combination with anti-PD-1, second experiment (Example 21); assay type: in vivo, mouse
Procedure: as §2, §3, §4

human BCMA-MFC = molecular target: T1, human BCMA-MFC (Homo sapiens, UniProt Q02223); experiment: SPR (Biacore 4000) binding kinetics at 25° C.
T1 construct: extracellular domain of human BCMA expressed with C-terminal mFc tag (human BCMA-MFC)
T1 sequence (Q02223 with tags, fused parts or gaps): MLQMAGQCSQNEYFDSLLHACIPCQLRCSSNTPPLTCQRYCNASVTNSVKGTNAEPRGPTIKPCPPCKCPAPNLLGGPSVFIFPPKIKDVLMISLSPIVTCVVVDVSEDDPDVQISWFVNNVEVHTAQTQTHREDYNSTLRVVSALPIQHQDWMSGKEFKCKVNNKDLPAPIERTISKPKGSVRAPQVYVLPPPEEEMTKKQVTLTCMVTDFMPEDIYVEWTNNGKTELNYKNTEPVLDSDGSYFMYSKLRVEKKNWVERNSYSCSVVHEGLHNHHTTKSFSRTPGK
Procedure: (§5) The CM5 Biacore sensor surface was derivatized by amine coupling with a monoclonal mouse anti-human Fc antibody (GE, #BR-1008-39) to capture purified anti-BCMA mAbs and anti-BCMA×anti-CD3 bispecific mAbs. All Biacore binding studies were performed in a buffer composed of 0.01M HEPES pH 7.4, 0.15M NaCl, 3 mM EDTA, 0.05% v/v Surfactant P20 (HBS-ET running buffer). […] Antigen samples were then injected over the anti-BCMA and anti-BCMA×anti-CD3 bispecific mAbs captured surfaces at a flow rate of 30 μL/minute. Antibody-reagent association was monitored for 5 minutes while dissociation in HBS-ET running buffer was monitored for 10 minutes. All of the binding kinetics experiments were performed at 25° C. Kinetic association (ka) and dissociation (kd) rate constants were determined by fitting the real-time sensorgrams to a 1:1 binding model using Scrubber 2.0c curve fitting software. Binding dissociation equilibrium constants (KD) and dissociative half-lives (t1/2) were calculated from the kinetic rate constants as: […]

human BCMA-MMH = molecular target: T2, human BCMA-MMH (Homo sapiens, UniProt Q02223); experiment: SPR (Biacore 4000) binding kinetics at 25° C.
T2 construct: extracellular domain of human BCMA expressed with C-terminal myc-myc-hexahistidine tag (human BCMA-MMH)
T2 sequence (Q02223 with tags, fused parts or gaps): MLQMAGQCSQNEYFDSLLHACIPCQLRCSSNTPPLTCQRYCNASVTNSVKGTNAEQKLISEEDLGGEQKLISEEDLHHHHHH
Procedure: as §5

monkey BCMA-MFC = experiment: SPR (Biacore 4000) binding kinetics at 25° C.
monkey BCMA-MFC, sequence (as listed by the source): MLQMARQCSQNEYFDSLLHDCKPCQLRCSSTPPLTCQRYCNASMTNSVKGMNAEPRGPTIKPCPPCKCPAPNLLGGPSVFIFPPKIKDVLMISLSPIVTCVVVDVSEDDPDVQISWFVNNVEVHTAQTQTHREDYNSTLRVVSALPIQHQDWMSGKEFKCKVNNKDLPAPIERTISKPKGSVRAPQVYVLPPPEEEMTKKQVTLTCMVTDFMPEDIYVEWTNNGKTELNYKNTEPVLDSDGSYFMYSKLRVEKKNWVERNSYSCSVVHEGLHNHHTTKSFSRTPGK
Procedure: as §5

monkey BCMA-MMH = experiment: SPR (Biacore 4000) binding kinetics at 25° C.; conditions: for 90 nM mfBCMA.mmh Bind (RU): antibody captured on anti-human Fc
monkey BCMA-MMH, sequence (as listed by the source): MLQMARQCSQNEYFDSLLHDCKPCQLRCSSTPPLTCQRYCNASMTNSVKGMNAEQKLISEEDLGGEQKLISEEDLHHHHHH
Procedure: as §5

mouse BCMA-MFC = molecular target: T3, mouse BCMA-MFC (Mus musculus, UniProt O88472); experiment: SPR (Biacore 4000) binding kinetics at 25° C.
T3 construct: 30 nM BCMA expressed with C-terminal mFc tag (mouse BCMA-MFC)
T3 sequence (O88472 with tags, fused parts or gaps): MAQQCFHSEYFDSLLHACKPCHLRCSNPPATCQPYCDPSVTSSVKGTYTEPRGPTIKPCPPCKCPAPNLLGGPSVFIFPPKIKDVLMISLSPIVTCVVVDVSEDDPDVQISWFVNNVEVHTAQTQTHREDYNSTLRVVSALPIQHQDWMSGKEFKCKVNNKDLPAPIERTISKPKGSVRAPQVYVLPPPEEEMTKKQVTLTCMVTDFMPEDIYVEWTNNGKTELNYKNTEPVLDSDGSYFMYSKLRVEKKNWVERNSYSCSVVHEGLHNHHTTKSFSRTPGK
Procedure: as §5

[7] = bispecific 0.04 mg/kg + second antibody 4 mg/kg
[8] = bispecific 0.24 mg/kg + second antibody 4 mg/kg
[9] = bispecific 0.04 mg/kg + partner antibody 4 mg/kg
[10] = bispecific 0.4 mg/kg + second antibody 4 mg/kg

Molecule: C[C@H](NC(=O)Cc1cc(F)cc(F)c1)C(=O)N[C@H](C(=O)OC(C)(C)C)c1ccccc1 [DAPT]
- MFI fold change over cells incubated in media only, Average [1]: 11.9 fold
- fold increase of BCMA levels after overnight DAPT, range over detecting antibodies [2]: 2.4-8.6 fold
- fold increase of BCMA levels after overnight DAPT, range over detecting antibodies [3]: 2.3-4 fold
- fold increase of BCMA levels after overnight DAPT, range over detecting antibodies [4]: 5.3-9.0 fold

Molecule: REGN5458 + Isotype: combination of REGN5458 with isotype control Ab (Clone 2A3)
- Average Tumor Size (mm3) ± SEM on Day 3 (MC38/BCMA tumors [5]; [7]): 15.62 ± 1.61 mm3
- Average Tumor Size (mm3) ± SEM on Day 3 (MC38/BCMA tumors [5]; [8]): 13.13 ± 3.12 mm3
- Average Tumor Size (mm3) ± SEM on Day 7 (MC38/BCMA tumors [5]; [7]): 37.98 ± 3.93 mm3
- Average Tumor Size (mm3) ± SEM on Day 7 (MC38/BCMA tumors [5]; [8]): 29.27 ± 5.00 mm3
- Average Tumor Size (mm3) ± SEM on Day 11 (MC38/BCMA tumors [5]; [7]): 112.53 ± 17.39 mm3
- Average Tumor Size (mm3) ± SEM on Day 11 (MC38/BCMA tumors [5]; [8]): 36.63 ± 14.89 mm3
- Average Tumor Size (mm3) ± SEM on Day 14 (MC38/BCMA tumors [5]; [7]): 438.16 ± 59.56 mm3
- Average Tumor Size (mm3) ± SEM on Day 14 (MC38/BCMA tumors [5]; [8]): 224.33 ± 47.04 mm3
- Average Tumor Size (mm3) ± SEM on Day 18 (MC38/BCMA tumors [5]; [7]): 1040.12 ± 61.95 mm3
- Average Tumor Size (mm3) ± SEM on Day 18 (MC38/BCMA tumors [5]; [8]): 515.15 ± 115.38 mm3
- Average Tumor Size (mm3) ± SEM on Day 21 (MC38/BCMA tumors [5]; [7]): 2133.12 ± 129.26 mm3
- Average Tumor Size (mm3) ± SEM on Day 21 (MC38/BCMA tumors [5]; [8]): 1225.47 ± 289.39 mm3
- Average Tumor Size (mm3) ± SEM on Day 24 (MC38/BCMA tumors [5]; [7]): 3648.37 ± 536.71 mm3
- Average Tumor Size (mm3) ± SEM on Day 24 (MC38/BCMA tumors [5]; [8]): 1493.26 ± 973.01 mm3
- Average Tumor Size (mm3) ± SEM on Day 28 (MC38/BCMA tumors [5]; [7]): All Animals Euthanized
- Average Tumor Size (mm3) ± SEM on Day 28 (MC38/BCMA tumors [5]; [8]): 1371.17 ± 0.00 mm3
- Number of Mice Tumor-Free at End of Experiment (Day 28) (MC38/BCMA tumors [5]; [9]): 0 of 7
- Number of Mice Tumor-Free at End of Experiment (Day 28) (MC38/BCMA tumors [5]; bispecific 0.24 mg/kg + partner antibody 4 mg/kg): 0 of 6
- Average Tumor Size (mm3) ± SEM on Day 3 (MC38/BCMA tumors [6]; [7]): 12.41 ± 2.56 mm3
- Average Tumor Size (mm3) ± SEM on Day 3 (MC38/BCMA tumors [6]; [10]): 11.22 ± 0.68 mm3
- Average Tumor Size (mm3) ± SEM on Day 6 (MC38/BCMA tumors [6]; [7]): 38.79 ± 3.52 mm3
- Average Tumor Size (mm3) ± SEM on Day 6 (MC38/BCMA tumors [6]; [10]): 16.11 ± 1.27 mm3
- Average Tumor Size (mm3) ± SEM on Day 10 (MC38/BCMA tumors [6]; [7]): 116.32 ± 19.99 mm3
- Average Tumor Size (mm3) ± SEM on Day 10 (MC38/BCMA tumors [6]; [10]): 24.27 ± 6.74 mm3
- Average Tumor Size (mm3) ± SEM on Day 13 (MC38/BCMA tumors [6]; [7]): 319.91 ± 53.05 mm3
- Average Tumor Size (mm3) ± SEM on Day 13 (MC38/BCMA tumors [6]; [10]): 50.93 ± 20.00 mm3
- Average Tumor Size (mm3) ± SEM on Day 18 (MC38/BCMA tumors [6]; [7]): 1314.27 ± 211.22 mm3
- Average Tumor Size (mm3) ± SEM on Day 18 (MC38/BCMA tumors [6]; [10]): 248.51 ± 107.21 mm3
- Average Tumor Size (mm3) ± SEM on Day 21 (MC38/BCMA tumors [6]; [7]): 2446.35 ± 395.48 mm3
- Average Tumor Size (mm3) ± SEM on Day 21 (MC38/BCMA tumors [6]; [10]): 453.43 ± 174.75 mm3
- Average Tumor Size (mm3) ± SEM on Day 25 (MC38/BCMA tumors [6]; [7]): 2411.64 ± 451.96 mm3
- Average Tumor Size (mm3) ± SEM on Day 25 (MC38/BCMA tumors [6]; [10]): 661.70 ± 331.60 mm3
- Number of Mice Tumor-Free at End of Experiment (Day 25) (MC38/BCMA tumors [6]; [9]): 0 of 10
- Number of Mice Tumor-Free at End of Experiment (Day 25) (MC38/BCMA tumors [6]; bispecific 0.4 mg/kg + partner antibody 4 mg/kg): 2 of 10

B1: REGN4515: anti-BCMA antibody, HCVR/LCVR SEQ ID NOs 50/58 (antibody, V domains shown)
VH: QVQLVESGGGLVKPGGSLRLSCAASGFTFSDYYISWIRQAPGKGLEWVSYISSSGSSIKYADSVKGRFTISRDNAKNSLYLQMNSLRAEDTAVYYCAREGGNYGMDVWGQGTTVTVSS
VL: DIQMTQSPSSVSASVGDRVTITCRASQGINNWLVWYQQKPGKAPKLLIYAATSLQSGVPSRFSGSGSGTDFTLTISSLQPEDFATYYCQQANSFPPTFGQGTKLEIK
- ka (human BCMA-MFC): 1.41e+06 M⁻¹ s⁻¹
- kd (human BCMA-MFC): 8.95e-05 s⁻¹
- ka (human BCMA-MMH): 869000 M⁻¹ s⁻¹
- kd (human BCMA-MMH): 0.00247 s⁻¹
- ka (monkey BCMA-MFC): 2.13e+06 M⁻¹ s⁻¹
- kd (monkey BCMA-MFC): 0.00716 s⁻¹
- Kd (monkey BCMA-MMH): > 90 nM
- 90 nM mfBCMA.mmh Bind (RU) (monkey BCMA-MMH): 1.9 RU
- ka (mouse BCMA-MFC): 947000 M⁻¹ s⁻¹
- kd (mouse BCMA-MFC): 0.00418 s⁻¹

B2: mAb16711: anti-BCMA antibody, HCVR/LCVR SEQ ID NOs 2/10 (antibody, V domains shown)
VH: QVQLVESGGGVVQPGRSLRLSCAASGFTFSTYGIHWVRQAPGKGLEWVAVILHDGSSNYYAESVKGRFIISRDNSKNTLYLQMNSLRAEDTALYYCTKRYSEAAGPNWFDPWGQGTLVTVSS
VL: DIQMTQSPSSVSASVGDRVTITCRASRGISSWLAWYQQKPGKAPKLLIHAASSLQSGVPSRFSGSGSGTDFTLTISSLQPEDFATYYCQQAISFPFTFGPGTKVDIK
- ka (human BCMA-MFC): 1.85e+06 M⁻¹ s⁻¹
- kd (human BCMA-MFC): 0.00019 s⁻¹
- ka (human BCMA-MMH): 2.01e+06 M⁻¹ s⁻¹
- kd (human BCMA-MMH): 0.00347 s⁻¹
- Kd (monkey BCMA-MFC): > 30 nM
- ka (mouse BCMA-MFC): 1.07e+06 M⁻¹ s⁻¹
- kd (mouse BCMA-MFC): 0.0011 s⁻¹

B3: REGN4514: anti-BCMA antibody, HCVR/LCVR SEQ ID NOs 34/42 (antibody, V domains shown)
VH: EVQLVESGGGLVQPGRSLRLSCAASGFTFDDYAMHWVRQAPGKGLEWVSGISWNSGNMGYADSVKGRFTISRDNAKNSLFLQMHSLRAEDTAFYYCAKVRLTAFDFWGQGTLVTVSS
VL: DIQMTQSPSSLSASVGDRVTITCRTSQSIGNYLNWFQQKPGKAPKLLIYTASSLQNGVPSRFTGSGSGTDFTLTISSLQPEDFVIYYCQQSFSTPYTFGQGTKLEIK
- ka (human BCMA-MFC): 1.07e+06 M⁻¹ s⁻¹
- kd (human BCMA-MFC): 4.53e-05 s⁻¹
- ka (human BCMA-MMH): 1.06e+06 M⁻¹ s⁻¹
- kd (human BCMA-MMH): 0.00285 s⁻¹
- ka (monkey BCMA-MFC): 492000 M⁻¹ s⁻¹
- kd (monkey BCMA-MFC): 0.00724 s⁻¹
- Kd (monkey BCMA-MMH): > 90 nM
- 90 nM mfBCMA.mmh Bind (RU) (monkey BCMA-MMH): 1.1 RU
- ka (mouse BCMA-MFC): 397000 M⁻¹ s⁻¹
- kd (mouse BCMA-MFC): 0.000269 s⁻¹
